Tests used:
false cleavers [1] = test: Test Example 4: herbicidal effect by soil treatment (Table 19, symbol Q); type: in vivo, false cleavers (Galium spurium)
How it was run: (§1)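 Herbicidal effect was rated 3 weeks after treatment, using the scoring criteria of an earlier test. The compound, formulated as an emulsion and diluted in water to a set herbicide amount, had been sprayed uniformly on soil over freshly sown seeds. Growth took place in a greenhouse at 25° C. to 30° C.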

barnyard grass [2] = test: Test Example 5: herbicidal effect by foliage application, plastic box (Table 20, symbol H); type: in vivo, barnyard grass (Echinochloa crus-galli); details: foliage application, three weeks after application
How it was run: (§2)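 Foliar spray test: emulsion formulation diluted in water to a set application rate, sprayed onto 14-day-old plants raised in diluvial soil at 25° C to 30° C under glass. Both herbicidal effect and crop effect rated visually three weeks later.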

redroot pigweed [3] = test: Test Example 5: herbicidal effect by foliage application, plastic box (Table 20, symbol N); type: in vivo, redroot pigweed (Amaranthus retroflexus); details: foliage application, three weeks after application
How it was run: as §2

Japanese bulrush = test: Test Example 1: herbicidal activity, application before weed generation under submerged conditions (Table 16, symbol B); type: in vivo, Japanese bulrush (Schoenoplectus juncoides)
How it was run: (§3)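 Submerged Wagner pots (alluvial soil, 4 cm water) sown with weed seeds and planted with 2.5-leaf rice seedlings; emulsifiable concentrate diluted in water applied to water surface on sowing day. Held in greenhouse at 25-30 °C; injury scored 0-5 by herbicidal rate after three weeks.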

redroot pigweed [4] = test: Test Example 4: herbicidal effect by soil treatment (Table 19, symbol N); type: in vivo, redroot pigweed (Amaranthus retroflexus)
How it was run: as §1

lambsquarters = test: Test Example 4: herbicidal effect by soil treatment (Table 19, symbol O); type: in vivo, lambsquarters (Chenopodium album)
How it was run: as §1

false cleavers [5] = test: Test Example 5: herbicidal effect by foliage application, plastic box (Table 20, symbol Q); type: in vivo, false cleavers (Galium spurium); details: foliage application, three weeks after application
How it was run: as §2

southern crabgrass = test: Test Example 4: herbicidal effect by soil treatment (Table 19, symbol F); type: in vivo, southern crabgrass (Digitaria ciliaris)
How it was run: as §1

Chinese sprangletop = test: Test Example 3: herbicidal effect by foliage application, Wagner pot (Table 18, symbol D); type: in vivo, chinese sprangletop (Leptochloa chinensis)
How it was run: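 Plants were sown in alluvial soil held under 0.1–0.5 cm standing water and grown 14 days in a greenhouse at 25–30 °C. An emulsifiable formulation, water-diluted to the set dose, was then sprayed onto the foliage, and effects were scored three weeks later using previously defined criteria.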

blackgrass [6] = test: Test Example 4: herbicidal effect by soil treatment (Table 19, symbol J); type: in vivo, blackgrass (Alopecurus myosuroides)
How it was run: as §1

blackgrass [7] = test: Test Example 5: herbicidal effect by foliage application, plastic box (Table 20, symbol J); type: in vivo, blackgrass (Alopecurus myosuroides); details: foliage application, three weeks after application
How it was run: as §2

barnyard grass [8] = test: Test Example 4: herbicidal effect by soil treatment (Table 19, symbol H); type: in vivo, barnyard grass (Echinochloa crus-galli)
How it was run: as §1

velvetleaf [9] = test: Test Example 5: herbicidal effect by foliage application, plastic box (Table 20, symbol M); type: in vivo, velvetleaf (Abutilon theophrasti); details: foliage application, three weeks after application
How it was run: as §2

chickweed = test: Test Example 5: herbicidal effect by foliage application, plastic box (Table 20, symbol P); type: in vivo, common chickweed (Stellaria media); details: foliage application, three weeks after application
How it was run: as §2

oval-leafed pondweed = test: Test Example 1: herbicidal activity, application before weed generation under submerged conditions (Table 16, symbol C); type: in vivo, oval-leafed pondweed (Monochoria vaginalis)
How it was run: as §3

wild oat [10] = test: Test Example 4: herbicidal effect by soil treatment (Table 19, symbol I); type: in vivo, wild oat (Avena fatua)
How it was run: as §1

velvetleaf [11] = test: Test Example 4: herbicidal effect by soil treatment (Table 19, symbol M); type: in vivo, velvetleaf (Abutilon theophrasti)
How it was run: as §1

wild oat [12] = test: Test Example 5: herbicidal effect by foliage application, plastic box (Table 20, symbol I); type: in vivo, wild oat (Avena fatua); details: foliage application, three weeks after application
How it was run: as §2

[13] = amount of applied herbicide 320 g/ha
[14] = amount of applied herbicide 323 g/ha

## CCCC(=O)Oc1c(C)nn(C)c(=O)c1-c1c(-c2ccc3c(c2)OCCO3)sc2cc(OC)ccc12 [3-083]
False cleavers [1]; [13]
  Q: false cleavers, herbicidal effect grade: 4 (Herbicidal rate of 70% or more and less than 90%)
Barnyard grass [2]; 320 g/ha
  H: barnyard grass, herbicidal effect grade: 2 (Herbicidal rate of 20% or more and less than 40%)
Redroot pigweed [3]; 320 g/ha
  N: redroot pigweed, herbicidal effect grade: 3 (Herbicidal rate of 40% or more and less than 70%)
Japanese bulrush; [13]
  Herbicidal effect, B: Japanese bulrush: 4 (Herbicidal rate of 70% or more and less than 90%)
Redroot pigweed [4]; [13]
  N: redroot pigweed, herbicidal effect grade: 0 (Herbicidal rate of 5% or less (almost no effect))
lambsquarters; [13]
  O: lambsquarters, herbicidal effect grade: 3 (Herbicidal rate of 40% or more and less than 70%)
False cleavers [5]; 320 g/ha
  Q: false cleavers, herbicidal effect grade: 5 (Herbicidal rate of 90% or more (almost completely withered))
Southern crabgrass; [13]
  F: southern crabgrass, herbicidal effect grade: 0 (Herbicidal rate of 5% or less (almost no effect))
Chinese sprangletop; 320 g/ha
  herbicidal effect on Chinese sprangletop (D): 4 (Herbicidal rate of 70% or more and less than 90%)
Blackgrass [6]; [13]
  J: blackgrass, herbicidal effect grade: 0 (Herbicidal rate of 5% or less (almost no effect))
Blackgrass [7]; 320 g/ha
  J: blackgrass, herbicidal effect grade: 0 (Herbicidal rate of 5% or less (almost no effect))
Barnyard grass [8]; [13]
  H: barnyard grass, herbicidal effect grade: 3 (Herbicidal rate of 40% or more and less than 70%)
Velvetleaf [9]; 320 g/ha
  M: velvetleaf, herbicidal effect grade: 3 (Herbicidal rate of 40% or more and less than 70%)
chickweed; 320 g/ha
  P: chickweed, herbicidal effect grade: 5 (Herbicidal rate of 90% or more (almost completely withered))
oval-leafed pondweed; [13]
  Herbicidal effect, C: oval-leafed pondweed: 4 (Herbicidal rate of 70% or more and less than 90%)
Wild oat [10]; [13]
  I: wild oat, herbicidal effect grade: 0 (Herbicidal rate of 5% or less (almost no effect))
Velvetleaf [11]; [13]
  M: velvetleaf, herbicidal effect grade: 0 (Herbicidal rate of 5% or less (almost no effect))
Wild oat [12]; 320 g/ha
  I: wild oat, herbicidal effect grade: 0 (Herbicidal rate of 5% or less (almost no effect))

## CCOc1ccc2c(-c3c(O)c(C)nn(C)c3=O)c(-c3ccccc3OC)sc2c1 [3-089]
False cleavers [1]; [13]
  Q: false cleavers, herbicidal effect grade: 5 (Herbicidal rate of 90% or more (almost completely withered))
Barnyard grass [2]; 320 g/ha
  H: barnyard grass, herbicidal effect grade: 5 (Herbicidal rate of 90% or more (almost completely withered))
Redroot pigweed [3]; 320 g/ha
  N: redroot pigweed, herbicidal effect grade: 5 (Herbicidal rate of 90% or more (almost completely withered))
Japanese bulrush; [13]
  Herbicidal effect, B: Japanese bulrush: 5 (Herbicidal rate of 90% or more (almost completely withered))
Redroot pigweed [4]; [13]
  N: redroot pigweed, herbicidal effect grade: 5 (Herbicidal rate of 90% or more (almost completely withered))
lambsquarters; [13]
  O: lambsquarters, herbicidal effect grade: 4 (Herbicidal rate of 70% or more and less than 90%)
False cleavers [5]; 320 g/ha
  Q: false cleavers, herbicidal effect grade: 5 (Herbicidal rate of 90% or more (almost completely withered))
Southern crabgrass; [13]
  F: southern crabgrass, herbicidal effect grade: 5 (Herbicidal rate of 90% or more (almost completely withered))
Chinese sprangletop; 320 g/ha
  herbicidal effect on Chinese sprangletop (D): 4 (Herbicidal rate of 70% or more and less than 90%)
Blackgrass [6]; [13]
  J: blackgrass, herbicidal effect grade: 4 (Herbicidal rate of 70% or more and less than 90%)
Blackgrass [7]; 320 g/ha
  J: blackgrass, herbicidal effect grade: 5 (Herbicidal rate of 90% or more (almost completely withered))
Barnyard grass [8]; [13]
  H: barnyard grass, herbicidal effect grade: 4 (Herbicidal rate of 70% or more and less than 90%)
Velvetleaf [9]; 320 g/ha
  M: velvetleaf, herbicidal effect grade: 5 (Herbicidal rate of 90% or more (almost completely withered))
chickweed; 320 g/ha
  P: chickweed, herbicidal effect grade: 5 (Herbicidal rate of 90% or more (almost completely withered))
oval-leafed pondweed; [13]
  Herbicidal effect, C: oval-leafed pondweed: 5 (Herbicidal rate of 90% or more (almost completely withered))
Wild oat [10]; [13]
  I: wild oat, herbicidal effect grade: 1 (Herbicidal rate of 5% or more and less than 20%)
Velvetleaf [11]; [13]
  M: velvetleaf, herbicidal effect grade: 0 (Herbicidal rate of 5% or less (almost no effect))
Wild oat [12]; 320 g/ha
  I: wild oat, herbicidal effect grade: 3 (Herbicidal rate of 40% or more and less than 70%)

## CCOc1ccc2c(-c3c(O)c(C)nn(C)c3=O)c(-c3ccccc3OCC)sc2c1 [3-093]
False cleavers [1]; [13]
  Q: false cleavers, herbicidal effect grade: 3 (Herbicidal rate of 40% or more and less than 70%)
Barnyard grass [2]; 320 g/ha
  H: barnyard grass, herbicidal effect grade: 5 (Herbicidal rate of 90% or more (almost completely withered))
Redroot pigweed [3]; 320 g/ha
  N: redroot pigweed, herbicidal effect grade: 5 (Herbicidal rate of 90% or more (almost completely withered))
Japanese bulrush; [13]
  Herbicidal effect, B: Japanese bulrush: 5 (Herbicidal rate of 90% or more (almost completely withered))
Redroot pigweed [4]; [13]
  N: redroot pigweed, herbicidal effect grade: 5 (Herbicidal rate of 90% or more (almost completely withered))
lambsquarters; [13]
  O: lambsquarters, herbicidal effect grade: 4 (Herbicidal rate of 70% or more and less than 90%)
False cleavers [5]; 320 g/ha
  Q: false cleavers, herbicidal effect grade: 5 (Herbicidal rate of 90% or more (almost completely withered))
Southern crabgrass; [13]
  F: southern crabgrass, herbicidal effect grade: 5 (Herbicidal rate of 90% or more (almost completely withered))
Chinese sprangletop; 320 g/ha
  herbicidal effect on Chinese sprangletop (D): 5 (Herbicidal rate of 90% or more (almost completely withered))
Blackgrass [6]; [13]
  J: blackgrass, herbicidal effect grade: 3 (Herbicidal rate of 40% or more and less than 70%)
Blackgrass [7]; 320 g/ha
  J: blackgrass, herbicidal effect grade: 4 (Herbicidal rate of 70% or more and less than 90%)
Barnyard grass [8]; [13]
  H: barnyard grass, herbicidal effect grade: 4 (Herbicidal rate of 70% or more and less than 90%)
Velvetleaf [9]; 320 g/ha
  M: velvetleaf, herbicidal effect grade: 5 (Herbicidal rate of 90% or more (almost completely withered))
chickweed; 320 g/ha
  P: chickweed, herbicidal effect grade: 5 (Herbicidal rate of 90% or more (almost completely withered))
oval-leafed pondweed; [13]
  Herbicidal effect, C: oval-leafed pondweed: 5 (Herbicidal rate of 90% or more (almost completely withered))
Wild oat [10]; [13]
  I: wild oat, herbicidal effect grade: 3 (Herbicidal rate of 40% or more and less than 70%)
Velvetleaf [11]; [13]
  M: velvetleaf, herbicidal effect grade: 3 (Herbicidal rate of 40% or more and less than 70%)
Wild oat [12]; 320 g/ha
  I: wild oat, herbicidal effect grade: 4 (Herbicidal rate of 70% or more and less than 90%)

## CCCC(=O)Oc1c(C)nn(C)c(=O)c1-c1c(-c2ccccc2OCC)sc2cc(OCC)ccc12 [3-094]
False cleavers [1]; [14]
  Q: false cleavers, herbicidal effect grade: 4 (Herbicidal rate of 70% or more and less than 90%)
Barnyard grass [2]; 323 g/ha
  H: barnyard grass, herbicidal effect grade: 5 (Herbicidal rate of 90% or more (almost completely withered))
Redroot pigweed [3]; 323 g/ha
  N: redroot pigweed, herbicidal effect grade: 5 (Herbicidal rate of 90% or more (almost completely withered))
Japanese bulrush; [14]
  Herbicidal effect, B: Japanese bulrush: 5 (Herbicidal rate of 90% or more (almost completely withered))
Redroot pigweed [4]; [14]
  N: redroot pigweed, herbicidal effect grade: 5 (Herbicidal rate of 90% or more (almost completely withered))
lambsquarters; [14]
  O: lambsquarters, herbicidal effect grade: 4 (Herbicidal rate of 70% or more and less than 90%)
False cleavers [5]; 323 g/ha
  Q: false cleavers, herbicidal effect grade: 5 (Herbicidal rate of 90% or more (almost completely withered))
Southern crabgrass; [14]
  F: southern crabgrass, herbicidal effect grade: 3 (Herbicidal rate of 40% or more and less than 70%)
Chinese sprangletop; 323 g/ha
  herbicidal effect on Chinese sprangletop (D): 5 (Herbicidal rate of 90% or more (almost completely withered))
Blackgrass [6]; [14]
  J: blackgrass, herbicidal effect grade: 2 (Herbicidal rate of 20% or more and less than 40%)
Blackgrass [7]; 323 g/ha
  J: blackgrass, herbicidal effect grade: 4 (Herbicidal rate of 70% or more and less than 90%)
Barnyard grass [8]; [14]
  H: barnyard grass, herbicidal effect grade: 0 (Herbicidal rate of 5% or less (almost no effect))
Velvetleaf [9]; 323 g/ha
  M: velvetleaf, herbicidal effect grade: 5 (Herbicidal rate of 90% or more (almost completely withered))
chickweed; 323 g/ha
  P: chickweed, herbicidal effect grade: 5 (Herbicidal rate of 90% or more (almost completely withered))
oval-leafed pondweed; [14]
  Herbicidal effect, C: oval-leafed pondweed: 5 (Herbicidal rate of 90% or more (almost completely withered))
Wild oat [10]; [14]
  I: wild oat, herbicidal effect grade: 0 (Herbicidal rate of 5% or less (almost no effect))
Velvetleaf [11]; [14]
  M: velvetleaf, herbicidal effect grade: 0 (Herbicidal rate of 5% or less (almost no effect))
Wild oat [12]; 323 g/ha
  I: wild oat, herbicidal effect grade: 5 (Herbicidal rate of 90% or more (almost completely withered))
